Results as given in PubChem BioAssay (NCI).
Several values for one entry are separate records, joined by “and”; a condition that tells them apart may be missing. Identical values can stand only once.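 How tested: cells in 96-well plates exposed to compound for 48 hours at five concentrations. GI50 = concentration required for 50% inhibition of growth. TGI is the concentration that stops growth completely.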 *1 amine or outer side, *2 acyl side, *3 side chain or, on linkers, in order; H or OH if unused. Where a SMILES comes first, the peptide text is derived from it. Bridges are numbered along the chain shown (N, C = ends). [ ]: non-standard residue; d: D form. The star is where a group is joined. Phe(3-Me) = Cc1cccc(C[C@H](N)C(=O)O)c1; NH(4-Cl-2-F-phenyl) = Fc1cc(Cl)ccc1N*; Pro(4R-Me) = C[C@H]1CN[C@H](C(=O)O)C1; Hyp = O=C(O)[C@@H]1C[C@@H](O)CN1; aThr = C[C@H](O)[C@H](N)C(=O)O; Pip = O=C(O)[C@@H]1CCCCN1; CO = O=C([*:1])[*:2]

Experiments:
Experiment in all cases: growth of human tumour cells (NCI), 48 h
NCI-H522 lung = tested on: NCI-H522 lung
HT29 colon = tested on: HT29 colon
MCF7 breast = tested on: MCF7 breast
UACC-62 melanoma = tested on: UACC-62 melanoma
HOP-92 NSCLC = tested on: HOP-92 NSCLC
HS 578T breast = tested on: HS 578T breast
EKVX NSCLC = tested on: EKVX NSCLC
OVCAR-5 ovarian = tested on: OVCAR-5 ovarian
K-562 leukemia = tested on: K-562 leukemia
HL-60(TB) leukemia = tested on: HL-60(TB) leukemia

Row | SMILES | GI50 (NCI-H522 lung) | TGI (NCI-H522 lung) | GI50 (HT29 colon) | TGI (HT29 colon) | GI50 (MCF7 breast) | TGI (MCF7 breast) | GI50 (UACC-62 melanoma) | TGI (UACC-62 melanoma) | GI50 (HOP-92 NSCLC) | TGI (HOP-92 NSCLC) | GI50 (HS 578T breast) | TGI (HS 578T breast) | GI50 (EKVX NSCLC) | TGI (EKVX NSCLC) | GI50 (OVCAR-5 ovarian) | TGI (OVCAR-5 ovarian) | GI50 (K-562 leukemia) | TGI (K-562 leukemia) | GI50 (HL-60(TB) leukemia) | TGI (HL-60(TB) leukemia)
1 | Cc1c(Cl)cccc1NC(=O)c1sc2nc3c(cc2c1N)CCCCCC3 | 116 nM | 1.07 µM | 188 nM | 6.56 µM | 149 nM | > 50 µM | 205 nM | 46.6 µM | 164 nM | 16.1 µM | 204 nM | 22.9 µM | 0.234 µM | > 50 µM | 791 nM | > 50 µM | 113 nM | > 50 µM | 158 nM | 3.4 µM
2 | Cc1ccc(NC2=C(Sc3ccc(Cl)cc3)C(=O)N(Cc3ccccc3)C2=O)cc1Cl | 3620 nM | 14.9 µM | 10400 nM | > 100 µM | 4370 nM | > 100 µM | 13500 nM | 30.5 µM | 4590 nM | 17 µM | 3370 nM | 18.7 µM | 26.7 µM | > 100 µM | 10500 nM | 25.1 µM | 3660 nM | 19.7 µM | 11900 nM | 27.6 µM
3 | CCc1oc2ccccc2c1C(=O)c1cc(Br)c(O)c(Br)c1 | – | 43.1 µM | – | 74.7 µM | – | 51.5 µM | – | 33.6 µM | – | 64.2 µM | – | 59 µM | – | 95.2 µM | – | 46.1 µM | – | 82.7 µM | – | 33.3 µM
4 | Cc1cccc(C[C@H](NC(=O)Nc2ccc(Cl)cc2F)C(=O)N[C@@H]2C(=O)N3C[C@H](O)C[C@H]3C(=O)N3CCCC[C@H]3C(=O)N[C@@H](C)C(=O)N3C[C@H](C)C[C@H]3C(=O)O[C@H]2C)c1 ({NH(4-Cl-2-F-phenyl)-CO}-[Phe(3-Me)][aThr][Hyp][Pip]A[Pro(4R-Me)]; ester 2-C) | 464 nM | 2.6 µM | 547 nM | 3.06 µM | 391 nM | 3 µM | 505 nM | 1.96 µM | 525 nM | 3.14 µM | 455 nM | 3.58 µM | 0.86 µM | 8.04 µM | 554 nM | 2.36 µM | 221 nM | > 33.7 µM | 322 nM | 1.79 µM
5 | C=C(CN1CCN(c2ccccc2F)CC1)c1ccc(C(=O)Nc2ccccc2N)cc1 | 1480 nM | 4.41 µM | 1190 nM | 4.37 µM | 889 nM | > 100 µM | 1160 nM | 18.3 µM | 611 nM | 5.55 µM | 3140 nM | > 100 µM | 4.67 µM | > 100 µM | 1290 nM | > 100 µM | 986 nM | > 100 µM | 353 nM | 2.87 µM
6 | CCc1ccc(CCC(=O)Nc2ncc(Cc3ccccc3)s2)o1 | 1990 nM | > 100 µM | 1020 nM | > 100 µM | 515 nM | > 100 µM | 1210 nM | > 100 µM | 18300 nM | > 100 µM | 2290 nM | > 100 µM | 4.6 µM | > 100 µM | 3930 nM | > 100 µM | 529 nM | > 100 µM | 1530 nM | 4.38 µM
7 | CCN(CC)CCCC(C)Nc1cnc(C(=O)Nc2cc(F)cc3cccnc23)cn1 (centres undefined) | 5510 nM and 1260 nM | 19 µM and 2.9 µM | 2960 nM and 668 nM | 10.8 µM and 4.76 µM | 2100 nM | 6.91 µM | 2280 nM and 1270 nM | 5.5 µM and 2.69 µM | 2430 nM and 1190 nM | 14.5 µM and 2.62 µM | 3970 nM and 2150 nM | 21.1 µM and 6.62 µM | 10.2 µM and 1.22 µM | 22.1 µM and 2.51 µM | 11000 nM and 1410 nM | 23.1 µM and 2.91 µM | 1950 nM and 460 nM | 4.97 µM and > 32.5 µM | – | 25.6 µM and 31.3 µM
8 | CCc1nc2ccc(Cc3ccc(C(=O)NO)cc3)cc2c(=O)n1CCc1ccccc1 | 302 nM | 1.68 µM | 919 nM | 4.5 µM | 1340 nM | 6.82 µM | 520 nM | 2.64 µM | 1360 nM | 2.98 µM | 1590 nM | 7.4 µM | 1.21 µM | 3.14 µM | 1360 nM | 12.8 µM | 1020 nM | > 100 µM | 2250 nM | 83.1 µM
9 | c1cncc(CNc2ccccc2-c2nnc(Nc3ccc4c(c3)OCCO4)o2)c1 | 36.9 nM | 7.9 µM | 50.4 nM | 15.2 µM | 291 nM | > 100 µM | 52.2 nM | > 100 µM | 222 nM | 20 µM | 232 nM | > 100 µM | 0.609 µM | > 100 µM | 658 nM | > 100 µM | 43.2 nM | > 100 µM | 103 nM | 3.34 µM
10 | Cc1ccc(NS(=O)(=O)c2cc(C)ccc2C)cc1 | 2020 nM | 7.61 µM | 2840 nM | 12.3 µM | 3590 nM | 83 µM | 3080 nM | 19.9 µM | 12900 nM | 34.6 µM | 10900 nM | 77.7 µM | 11.8 µM | 92.7 µM | 15400 nM | 72.4 µM | 761 nM | 29.4 µM | 3650 nM | 27 µM
11 | CCS(=O)(=O)c1ccc(OC)c(Nc2nccc(N(C)c3ccc4c(C)[nH]nc4c3)n2)c1 | 3570 nM | 10.5 µM | 5660 nM | 16.4 µM | 9160 nM | > 25 µM | 6790 nM | 24.5 µM | 622 nM | 3.64 µM | 2690 nM | 14.4 µM | 6.85 µM | > 25 µM | 5750 nM | > 22.7 µM | 2790 nM | 16.8 µM | 7370 nM | 18.9 µM
